The values that follow come from patent publication US20220323406A1, “METHODS AND COMPOSITIONS FOR DIFFERENTIATING STEM CELLS” (Massachusetts Institute of Technology, priority 2019, published 2022).

Each structure is given as a SMILES string. “Also recorded” adds a separate entry of the source.

In assay [1] the test system is small intestine crypts (Paneth, stem, goblet cells). The assay can be described thus: Animal study: histological quantification of Paneth, Olfm4+ stem and PAS+ goblet cells per crypt. It counts as in vivo, mouse. The conditions noted are these: every other day, day 14. As to the method:
Following a similar protocol as previously reported for SINE treatment in the context of cancer (Arango et al., 2017; […] Zheng et al., 2014), KPT-330 was administered at a dose 10 mg/kg via oral gavage every other day over a two-week span in C57BL/6 wild-type mice, and body weight was monitored for any clear toxicity. […] Applicants tracked animal weight every other day, and at day 14 collected the proximal and distal thirds of the small intestine for histological quantification of Paneth, stem, and goblet populations (FIG. 26A). […] Samples were prepared for histology by the ‘swiss-roll’ technique, and following staining, were blinded and randomized before manual counting of well-preserved features. […] Applicants additionally quantified the abundance of Olfm4+ stem cells as well as PAS+ goblet cells within the same animals to ascertain whether the effect of SINE treatment was restricted to the Paneth cell compartment (representative images FIG. 30D,E). […] Animal study. 8-10 weeks old wild type C57BL/6NCrl male mice (#027) were purchased from Charles River. Mice were housed under 12 h light/dark cycle and provided food and water ad libitum. 0.01, 0.05, 0.2 or 10 mg/kg of KPT-330 were injected orally using a disposable gavage needle (Cadence Science, #9921) at 10 μL/g weight. KPT-330 was dissolved in DMSO initially and further diluted in sterile PBS containing Pluronic F-68 Non-ionic Surfactant (Gibco, #24040032) and Polyvinylpyrrolidone (PVP, Alfa Aesar, A14315, average M.W. 58,000); the final concentration of DMSO is 2%, Pluronic is 0.5%, and PVP is 0.5%. KPT-330 was administered every other day for two weeks, 7 injections in total (days 0, 2, 4, 6, 8, 10, 12), and mice were sacrificed at day 14. All animal studies are approved by the Committee on Animal Care (CAC) at Massachusetts Institute of Technology. Histology. The small intestine (SI) was collected from mice and divided into three parts. Only proximal and distal SI were kept in PBS, and medial SI was discarded. Each SI was opened longitudinally and washed in PBS. […] Fixed tissues were embedded in paraffin, and 4 μm sections were mounted on slides. For immunohistochemistry, slides were deparaffinized, antigen retrieved using heat-induced epitope retrieval at 97° C. for 20 min using citrate buffer pH 6, and probed with appropriate antibodies followed by DAB staining. For McManus Periodic Acid Schiff (PAS) reaction, slides were deparaffinized, oxidized in periodic acid, and stained with Schiff reagent (Poly Scientific, s272) followed by counterstaining with Harris Hematoxylin. Slides were scanned by Aperio Slide Scanner (Leica) and cells were counted on Aperio eSlide Manager. Slides were randomized before counting, and all cell types were counted in all well-preserved crypts along the longitudinal crypt-villus axis.

For assay [2], the system named is ENR+CD organoids, stem II/III cells. The assay can be described thus: Single-cell RNA-sequencing (Seq-Well) of organoid differentiation time course. It counts as cell-based, mouse. The text has this:
For time points beyond 2 days, media was refreshed every other day. Following the Seq-Well protocol Applicants followed a standard library preparation, sequencing, and alignment process (see Methods).
Single-cell RNA-sequencing. A single-cell suspension was obtained from organoids cultured under conditions for the differentiation time course as described above. Applicants utilized the Seq-Well platform for massively parallel scRNA-seq to capture transcriptomes of single cells on barcoded mRNA capture beads. […] In brief, 20,000 cells from one organoid condition were loaded onto one array containing 100,000 barcoded mRNA capture beads. The loaded arrays containing cells and beads were then sealed using a polycarbonate membrane with a pore size of 0.01 μm, which allows for exchange of buffers but retains biological molecules confined within each microwell. Subsequent exchange of buffers allows for cell lysis, transcript hybridization, and bead recovery before performing reverse transcription en masse. Following reverse transcription and exonuclease treatment to remove excess primers, PCR amplification was carried out using KAPA HiFi PCR Mastermix with 2,000 beads per 50 μL reaction volume. Libraries were then pooled and purified using Agencourt AMPure XP beads (Beckman Coulter, A63881) by a 0.6×SPRI followed by a 0.8×SPRI and quantified using Qubit hsDNA Assay (Thermo Fisher). Libraries were constructed using the Nextera Tagmentation method on a total of 800 pg of pooled cDNA library per sample. […] Arrays were sequenced with an Illumina NovaSeq System. The read structure was paired end with Read 1 starting from a custom read 1 primer containing 20 bases with a 12 bp cell barcode and 8 bp unique molecular identifier (UMI) and Read 2 being 50 bases containing transcript information.
Single-cell RNA-sequencing computational pipelines and analysis.

The test system of assay [3] is Paneth, goblet and cycling cells of small intestine. As to the kind of experiment: KPT-330 treatment in vivo (Example 1), histology of proximal and distal small intestine. Further details: cycling cell number, distal small intestine: dose or concentration left out as unconfirmed.
[4] abbreviates: stem II/III, day 0.25-2, FDR<0.05.

As to `O=C(/C=C\n1cnc(-c2cc(C(F)(F)F)cc(C(F)(F)F)c2)n1)NNc1cnccn1` [KPT-330], in assay [1] (0.01 mg/kg oral), the “Olfm4+ stem cells, distal small intestine” value was “significant increase in Olfm4+ stem cells”; the “Paneth cells per crypt, distal small intestine” value is listed as “significant increases in Paneth abundance”; the “Paneth cells per crypt, proximal small intestine” value is on record as “significant increases in Paneth abundance”. Further, in assay [1] (0.2 mg/kg oral), the “Paneth cells per crypt, proximal small intestine” value is “significant increases in Paneth abundance”. The “PAS+ goblet cell population” value in assay [1] (0.01-0.2 mg/kg oral) is reported as “did not overserve any significant changes”. Further, the “day 6 Paneth cell odds ratio (OR), treated vs control” value in assay [2] (160 nM KPT-330 in ENR+CD) is reported as roughly 2. Also, in assay [2] (160 nM KPT-330 in ENR+CD vs ENR+CD, day 0.25-6), the “organoid cell type composition over differentiation time course” value was “enhances stem conversion to mature cells; also recorded: relative depletion of stem I (and stem II & III) and enteroendocrine cells over time along with the corresponding enrichment of enterocytes and Paneth cells”. Moreover, the “Atf3 (ATF3) expression” value in assay [2] (KPT-330 treated vs control cells) is given as “upregulated”. Further, the “active / quiescent ISC signature in early stem cell populations” value in assay [2] (early stem II/III cells) was “induces a quiescent ISC signature and reduces an active ISC signature; also recorded: transition into quiescence”. Moreover, in assay [2] (setting [4]), the “GSEA hallmark programs: mitogen-driven signaling (E2F, MYC targets, G2M checkpoint)” value is recorded as “suppresses programs downstream of mitogen-driven signaling” and the “GSEA hallmark programs: stress response (NFkB signaling, hypoxia, inflammatory response)” value is “up-regulating programs broadly resembling a complex stress response”. The “Paneth cell number, distal small intestine” value in assay [3] (high dose) is “decreased Paneth cells”. The “cycling cell number, distal small intestine” value in assay [3] (low dose) is given as “significant increase in cycling cell number”. Further, in assay [3] (oral gavage, 1 week), the “Paneth cell number, proximal small intestine” value is recorded as “no significant shift in Paneth cell number”; the effect by histology entry is reported as “pro-differentiation effect”; the “goblet cell numbers, proximal/distal small intestine” value was “no significant shift in goblet cell numbers”.
